Laboratory results reported in patent US20230382925A1, “MODULATORS OF CYSTIC FIBROSIS TRANSMEMBRANE CONDUCTANCE REGULATOR” (VERTEX PHARMACEUTICALS INCORPORATED, priority 2020, published 2023).
Like-named read-outs stand apart in the source and are kept apart here.

Target: CFTR (Homo sapiens, UniProt P13569)
Assay: Membrane Potential Dye, Enteroid Assay B
Type: cell-based
How it was run: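 Human intestinal enteroid cells exposed to compound 18-24 h at 37 °C, then loaded with methyl oxonol membrane-potential dye plus CaCC blockers. Chloride transport triggered in chloride-free buffer with 10 μM forskolin, 100 μM IBMX, 300 nM Compound III; fluorescence read 15 min, expressed as % of triple-corrector/potentiator combination control.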

[1] = Table 10, read-out: Ent. B EC50

Chain of CFTR (P13569 with tags, fused parts or gaps DEL508-508): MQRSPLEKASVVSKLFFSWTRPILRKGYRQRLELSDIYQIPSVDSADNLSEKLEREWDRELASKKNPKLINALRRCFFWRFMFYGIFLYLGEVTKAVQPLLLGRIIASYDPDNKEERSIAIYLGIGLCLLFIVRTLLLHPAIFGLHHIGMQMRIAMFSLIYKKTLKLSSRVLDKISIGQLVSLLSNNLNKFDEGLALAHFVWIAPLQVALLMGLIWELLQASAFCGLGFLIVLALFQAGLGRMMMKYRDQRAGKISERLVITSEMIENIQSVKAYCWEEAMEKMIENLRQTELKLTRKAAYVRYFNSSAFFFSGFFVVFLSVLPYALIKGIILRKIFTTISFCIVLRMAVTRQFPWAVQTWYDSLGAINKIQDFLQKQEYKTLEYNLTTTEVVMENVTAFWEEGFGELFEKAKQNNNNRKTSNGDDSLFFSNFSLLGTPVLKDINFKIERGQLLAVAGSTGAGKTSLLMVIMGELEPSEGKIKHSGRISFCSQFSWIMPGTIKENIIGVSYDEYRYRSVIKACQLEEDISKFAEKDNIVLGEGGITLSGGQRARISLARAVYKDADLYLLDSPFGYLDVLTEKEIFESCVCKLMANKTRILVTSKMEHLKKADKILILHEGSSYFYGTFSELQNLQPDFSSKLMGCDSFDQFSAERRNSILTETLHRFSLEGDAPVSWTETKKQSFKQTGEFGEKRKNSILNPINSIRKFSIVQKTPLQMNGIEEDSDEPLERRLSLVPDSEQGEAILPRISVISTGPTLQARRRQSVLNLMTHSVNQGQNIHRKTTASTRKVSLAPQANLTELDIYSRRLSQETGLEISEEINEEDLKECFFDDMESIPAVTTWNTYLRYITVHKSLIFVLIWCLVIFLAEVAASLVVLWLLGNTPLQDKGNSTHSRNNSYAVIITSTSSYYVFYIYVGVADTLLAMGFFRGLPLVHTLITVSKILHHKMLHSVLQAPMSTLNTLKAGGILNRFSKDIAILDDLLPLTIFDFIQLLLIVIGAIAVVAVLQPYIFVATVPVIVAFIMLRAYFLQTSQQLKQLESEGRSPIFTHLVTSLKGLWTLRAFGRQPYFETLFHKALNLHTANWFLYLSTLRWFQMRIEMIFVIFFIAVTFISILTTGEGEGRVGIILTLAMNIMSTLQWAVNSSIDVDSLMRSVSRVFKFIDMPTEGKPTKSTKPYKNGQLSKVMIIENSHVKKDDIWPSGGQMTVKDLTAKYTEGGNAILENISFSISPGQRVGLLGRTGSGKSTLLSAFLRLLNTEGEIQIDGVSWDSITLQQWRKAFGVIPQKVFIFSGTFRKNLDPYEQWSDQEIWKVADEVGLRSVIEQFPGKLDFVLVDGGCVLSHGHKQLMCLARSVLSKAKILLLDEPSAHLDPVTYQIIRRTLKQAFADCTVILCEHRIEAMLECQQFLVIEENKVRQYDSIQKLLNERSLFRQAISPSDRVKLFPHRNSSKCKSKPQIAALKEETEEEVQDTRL

Structure (SMILES) | Ent. B Max Activity (%) (Table 10) | EC50 [1] [nM] | also measured
COCCN1CCC2(CC1)CC(N1C(=O)c3cccc(c3)S(=O)(=O)Nc3nc(cc(-c4c(C)cccc4C)n3)OC[C@H]1CC(C)(C)C)C2 [Compound 138, (11R)-6-(2,6-Dimethylphenyl)-11-(2,2-dimethylpropyl)-12-[7-(2-methoxyethyl)-7-azaspiro[3.5]nonan-2-yl]-2,2-dioxo-9-oxa-2λ^6-thia-3,5,12,19-tetrazatricyclo[12.3.1.14,8]nonadeca-1(18),4(19),5,7,14,16-hexaen-13-one] | – | – | Ent. B Max Activity (%): +++ (+++ is >60%); EC50 (read-out: Ent. B EC50): < 1000 nM
COC(=O)N1CCC2(CC1)CC(N1C(=O)c3cccc(n3)S(=O)(=O)Nc3nc(cc(-c4c(C)cccc4C)n3)OC[C@H]1CC(C)C)C2 [Compound 391] | – | – | Ent. B Max Activity (%): +++ (+++ is >60%); EC50 (read-out: Ent. B EC50): < 1000 nM
Cc1cccc(C)c1-c1cc2nc(n1)NS(=O)(=O)c1cccc(c1)C(=O)N(C1CC3(CC(N)C3)C1)[C@H](CC(C)(C)C)CO2 (single isomer, unassigned) [Compound 118] | – | – | Ent. B Max Activity (%): +++ (+++ is >60%); EC50 (read-out: Ent. B EC50): < 1000 nM
COC(=O)N1C[C@H]2C[C@@H](C1)C2N1C(=O)c2cccc(c2)S(=O)(=O)Nc2nc(cc(-c3c(C)cccc3C)n2)OC[C@H]1CC(C)(C)C (single isomer, unassigned) [Compound 143] | ++ (++ is 30-60%) | – | EC50 (read-out: Ent. B EC50, Table 10): < 1000 nM
Cc1cccc(C)c1-c1cc2nc(n1)NS(=O)(=O)c1cccc(c1)C(=O)N(C1CC(CO)(C(C)(C)O)C1)[C@H](CC(C)(C)C)CO2 (single isomer, unassigned) [Compound 159] | +++ (+++ is >60%) | < 1000 | –
[H][C@]1(N2C(=O)c3cccc(c3)S(=O)(=O)Nc3nc(cc(-c4c(C)cccc4C)n3)OC[C@H]2CC(C)C)C[C@@]2(C[C@H](NC(=O)OC(C)C)C2)C1 (single isomer, unassigned) [Compound 124] | +++ (+++ is >60%) | < 1000 | –
Cc1cccc(C)c1-c1cc2nc(n1)NS(=O)(=O)c1cccc(c1)C(=O)N(C1CC3(CCN(CCOC(F)(F)F)CC3)C1)[C@H](CC(C)C)CO2 [Compound 299] | – | – | Ent. B Max Activity (%): +++ (+++ is >60%); EC50 (read-out: Ent. B EC50): < 1000 nM
[H][C@]1(N2C(=O)c3cccc(c3)S(=O)(=O)Nc3nc(cc(-c4c(C)cccc4C)n3)OC[C@H]2CCC(C)C)C[C@@]2(C[C@H](C(C)(C)O)C2)C1 (single isomer, unassigned) [Compound 4] | +++ (+++ is >60%) | < 1000 | –
COC(=O)NC[C@H]1C[C@@H](N2C(=O)c3cccc(c3)S(=O)(=O)Nc3nc(cc(-c4c(C)cccc4C)n3)OC[C@H]2CC(C)C)C1 (stereo in doubt) [Compound 264] | – | – | Ent. B Max Activity (%) (Table 9): +++ (+++ is >60%); EC50 (Table 9, read-out: Ent. B EC50): < 1000 nM

The next lines start with results.

Ent. B Max Activity (%) (Table 10) | EC50 [1] [nM] | Structure (SMILES) | also measured
++ (++ is 30-60%) | < 1000 | COC(=O)NC1CC2(C1)CC(N1C(=O)c3cccc(c3)S(=O)(=O)Nc3nc(cc(-c4c(C)cccc4C)n3)O[C@@H](C)[C@H]1C)C2 (stereo partly shown) [Compound 443] | –
+++ (+++ is >60%) | < 1000 | Cc1cccc(C)c1-c1cc2nc(n1)NS(=O)(=O)c1cccc(n1)C(=O)N([C@H]1C[C@@H](C(C)(C)O)C1)[C@H](CC(C)(C)C)CO2 (stereo in doubt) [Compound 411] | –
++ (++ is 30-60%) | < 1000 | COC(=O)N(C)C1(C)CC(N2C(=O)c3cccc(c3)S(=O)(=O)Nc3nc(cc(-c4c(C)cccc4C)n3)OC[C@H]2CC(C)(C)C)C1 (stereo in doubt) [Compound 241] | –
+++ (+++ is >60%) | < 1000 | Cc1cccc(C)c1-c1cc2nc(n1)NS(=O)(=O)c1cccc(c1)C(=O)N(C1CC3(CCN(C(=O)C(C)C)CC3)C1)[C@H](CC(C)(C)C(F)(F)F)CO2 [Compound 416] | –
++ (++ is 30-60%) | < 1000 | Cc1cccc(C)c1-c1cc2nc(n1)NS(=O)(=O)c1cccc(c1)C(=O)N(C1CC(N)C1)[C@H](CC(C)(C)C)CO2 (single isomer, unassigned) [Compound 165] | –
